As usually defined, the inhibition is the change of the read-out against control, counted positive when it falls.

Chain of BTK (Q06187 402-655 limits assumed): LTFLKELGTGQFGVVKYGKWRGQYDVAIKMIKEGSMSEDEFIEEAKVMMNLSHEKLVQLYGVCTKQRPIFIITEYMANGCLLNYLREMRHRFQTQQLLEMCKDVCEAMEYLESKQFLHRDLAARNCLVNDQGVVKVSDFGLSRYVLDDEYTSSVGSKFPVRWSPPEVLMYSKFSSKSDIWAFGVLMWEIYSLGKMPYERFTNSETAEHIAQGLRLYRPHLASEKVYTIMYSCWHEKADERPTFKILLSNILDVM

The first assay concerns the target BTK (Homo sapiens, UniProt Q06187). Put plainly: biochemical. The note with it: read-out: BTK inhibition (%).
`CN1CCCCC1Cn1cc(C(=O)c2cc([N+](=O)[O-])ccc2I)c2ccccc21` (stereo not drawn) [PCM-0095105]: the inhibition at 10 µM turned out to be 22.6%.
For `CC1(C)C(=O)N(c2ccc(C#N)c(C(F)(F)F)c2)C(=O)N1CCCCO` [PCM-0216095], the inhibition at 10 µM is 11.6%.

Still in this assay, the particulars now being: read-out: BTK inhibition (%), 0.75 uM BTK, […] probe 3l, 15 min preincubation.
As for `C=CC(=O)Nc1cccc(C)c1Nc1ncc2cc(-c3c(Cl)c(OC)cc(OC)c3Cl)ccc2n1` [PCM-0215508], the inhibition at 10 µM came out at 100%.
Same read-out and setting: for `Cc1ccccc1N1CCN(CCc2nnc3n2CCCC3)CC1` [PCM-0216139] the value was 3.9%.
Same read-out and setting: then `O=C(Nc1ccccc1-c1cn2c(CN3CC[C@@H](O)C3)csc2n1)c1ccc2ccccc2c1` [PCM-0215757], with -1.5%.
For the compound `OCCn1cc(-c2cnc3nnn(Cc4ccc5ncccc5c4)c3n2)cn1` [PCM-0095071], the inhibition at 10 µM came to 0%.
Consider `COc1cccc(-c2cc(NCc3ccc4c(c3)OCO4)nc(N)n2)c1` [PCM-0215610], for which the inhibition at 10 µM is -7.7%.
Still for that read-out and setting: for `CCc1cc(Nc2nccc(-c3c(-c4ccc(OC)c(C(=O)Nc5c(F)cccc5F)c4)nc4ccccn34)n2)c(OC)cc1N1CCC(N2CCN(S(C)(=O)=O)CC2)CC1` [PCM-0095069] the value was 44.8%.
Consider `O=C(NC(NC(=S)Nc1ccc(F)c([N+](=O)[O-])c1)C(Cl)(Cl)Cl)C(c1ccccc1)c1ccccc1` (stereo not drawn) [PCM-0215199], for which the inhibition at 10 µM is 106%.
`CC(C)(C)c1cc(C(C)(C)C)c(NC(=O)c2c[nH]c3ccccc3c2=O)cc1O` [PCM-0094963]: the inhibition at 10 µM was 49.8%.
As for `CC(C)(NS(=O)(=O)c1ccc2c(Cl)cnc(N=C(N)N)c2c1)C(=O)O` [PCM-0215778], the inhibition at 10 µM was -11.6%.
Turning to `O=C(c1cn(Cc2cncn2Cc2ccc(Br)cc2)cc1-c1cccc2ccccc12)N1CCOCC1` [PCM-0215301], the inhibition at 10 µM is -4.6%.
As to `Cn1cc(-c2ccc3c(c2)CCN3C(=O)Cc2cccc(C(F)(F)F)c2)c2c(N)ncnc21` [PCM-0095812], the inhibition at 10 µM is 40%.
On the same count and under the same terms, for `NC(=O)c1ccc[n+]([C@@H]2O[C@H](COP(=O)([O-])O)[C@@H](O)[C@H]2O)c1` [PCM-0216232] the value was -6.8%.
Consider `O=C(O)/C=C/C(=O)O` [PCM-0064603], for which the inhibition at 10 µM was -7.7%.
On the same count and under the same terms, then `CCCN1CCCC[C@H]1C(=O)Nc1c(C)cccc1C` [PCM-0095613], with -24.9%; and `CC(C)=CCC[C@](C)(O[C@@H]1O[C@H](CO)[C@@H](O)[C@H](O)[C@H]1O)[C@H]1CC[C@]2(C)[C@@H]1[C@H](O)C[C@@H]1[C@@]3(C)CC[C@H](O)C(C)(C)[C@@H]3[C@@H](O[C@@H]3O[C@H](CO)[C@@H](O)[C@H](O)[C@H]3O)C[C@]12C` [PCM-0215029], with 14%; and `COc1ccc(N2C(=O)/C(=C\c3ccc([N+](=O)[O-])s3)SC2=S)cc1` [PCM-0215671], with 22.4%.
Same read-out and setting: for `CN(C)CCc1c[nH]c2ccc(C[C@H]3COC(=O)N3)cc12` [PCM-0090594] the value was 17.1%; for `CCOC(=O)C1=C(C)NC(=S)NC1c1cccc(O)c1` (stereo not drawn) [PCM-0215759], -25.5%; for `C[C@@H](O)[C@H]1C(=O)N2C(C(=O)OCOC(=O)C(C)(C)C)=C(SC3CN(C4=NCCS4)C3)[C@H](C)[C@H]12` [PCM-0214665], 4.7%.
Consider `O=C(O)c1cc(=O)cc(C(=O)O)o1` [PCM-0216206], for which the inhibition at 10 µM is -6.2%.
Consider `Cc1ncc([N+](=O)[O-])n1CC(C)O` (stereo not drawn) [PCM-0086479], for which the inhibition at 10 µM is -3.9%.
As for `O=C(/C=C/c1ccc(O)c2c1[C@H](C(=O)O)[C@@H](c1ccc(O)c(O)c1)O2)O[C@H](Cc1ccc(O)c(O)c1)C(=O)O` [PCM-0216504], the inhibition at 10 µM came out at 8.5%.
On the same count and under the same terms, for `O=C(/C=C/c1ccc(O)cc1)OC[C@H]1O[C@@H](Oc2c(-c3ccc(O)cc3)oc3cc(O)cc(O)c3c2=O)[C@H](O)[C@@H](O)[C@@H]1O` [PCM-0216495] the value was 15.3%; for `CN(C)Cc1cccc(N=C(c2ccccc2)c2c(O)[nH]c3cc(C(=O)N(C)C)ccc23)c1` [PCM-0095091], 1.4%; for `COc1cc(C)[nH]c(=O)c1CNC(=O)c1c(C)n([C@H](C)C2CCN(CC(F)(F)F)CC2)c2ccccc12` [PCM-0214592], 21.6%.
Same read-out and setting: for `CC(C)Oc1ccc2c(=O)c(-c3ccccc3)coc2c1` [PCM-0094837] the value was 17.9%; for `CNC(=O)[C@H](Cc1c[nH]c2ccccc12)NC(=O)[C@@H](CC(=O)NO)CC(C)C` [PCM-0095723], 19.3%; for `COc1cc(O)c2c(c1)C(=O)c1cc(C)cc(O)c1C2=O` [PCM-0088700], 11.1%.
As to `C=C[C@H]1CN2CC[C@H]1C[C@H]2[C@H](O)c1ccnc2ccc(OC)cc12` [PCM-0004959], the inhibition at 10 µM was -22.6%.
The same measure, in the same setting: then `CCOC(=O)c1csc(Nc2ccc(Cl)cc2)n1` [PCM-0215549], with 17.8%.
On the same count and under the same terms, for `CCCCCCCC/C=C\CCCCCCCCCCCC(=O)O` [PCM-0216153] the value was -64.9%; for `N#Cc1ccc(Oc2ccc3c(c2)COB3O)cc1` [PCM-0215118], 8.5%.
Consider `O=C(/C=C\n1cnc(-c2cc(C(F)(F)F)cc(C(F)(F)F)c2)n1)NNc1ccccn1` [PCM-0215397], for which the inhibition at 10 µM was -19.3%.
On the same count and under the same terms, then `CO[C@H]1[C@@H](O)[C@H](O[C@@H]2[C@@H](C)O[C@@H](O[C@H]3CC[C@@]4(C)[C@@H](CC[C@@]56O[C@@]57CC[C@@H](C(C)=O)[C@@]7(C)[C@H](OC(C)=O)[C@@H](OC(=O)c5ccccc5)[C@H]46)C3)C[C@H]2OC)O[C@H](C)[C@H]1O` [PCM-0216600], with -12.4%; and `CC(C)(C)C(O)/C=C/c1ccc2c(c1)OCO2` (stereo not drawn) [PCM-0216138], with -4.6%; and `COc1cc(-c2oc3cc(O)cc(O)c3c(=O)c2O[C@@H]2O[C@H](CO[C@@H]3O[C@@H](C)[C@H](O)[C@@H](O)[C@H]3O)[C@@H](O)[C@H](O)[C@H]2O)ccc1O` [PCM-0216322], with 8.5%.
In the case of `Cc1cnc(C(=O)N[C@H]2CCCCC/C=C\[C@@H]3C[C@@]3(C(=O)NS(=O)(=O)C3CC3)NC(=O)[C@@H]3C[C@@H](Oc4nc5ccccc5c5ccccc45)CN3C2=O)cn1` [PCM-0216057], the inhibition at 10 µM was found to be 53.3%.
On to `CC(=O)c1ccc(O)cc1O` [PCM-0215067], for which the inhibition at 10 µM is 9.3%.
Regarding `COc1ccc(F)c(F)c1C(=O)c1cnc(NC2CCN(S(C)(=O)=O)CC2)nc1N` [PCM-0095383], the inhibition at 10 µM is -9.7%.
Still for that read-out and setting: for `CC1=C[C@H]2[C@@H](CC1)[C@H](C)CC[C@H]2[C@@H](C)C(=O)O` [PCM-0216135] the value was -3.1%; for `O=C(NNc1ccccc1)c1ccncc1` [PCM-0095808], -11.6%.
Still for that read-out and setting: for `Cc1cc(=O)oc2ccc(O)cc12` [PCM-0216279] the value was 17%; for `O=C1c2c(O)cccc2[C@H]([C@@H]2O[C@H](CO)[C@@H](O)[C@H](O)[C@H]2O)c2cc(CO)cc(O)c21` [PCM-0094826], 21%.
With `NC(=O)C[C@H](N)C(=O)O` [PCM-0216200], the inhibition at 10 µM amounted to 13.6%.
The same measure, in the same setting: then `NC(=O)/C(=C/n1cnc(-c2cc(C(F)(F)F)cc(C(F)(F)F)c2)n1)c1cncnc1` [PCM-0215821], with -10%; and `N[C@@]1(C(=O)O)CS(=O)(=O)[C@H]2[C@H](C(=O)O)[C@H]21` [PCM-0215191], with 9.4%.

These data come from article PMC8041284, “Tunable Methacrylamides for Covalent Ligand Directed Release Chemistry” (Journal of the American Chemical Society, 2021).
